According to patent US8470736B2, “Turfgrass quality” (Syngenta Crop Protection, LLC, priority 2008, dated 2013):

Legend:
Format in all cases: in vivo
[1] = test system: bentgrass (Agrostis palustris) variety Crenshaw; experiment: Turfgrass quality assessment, Example 1
Description: (§1) Compositions comprising methyl jasmonate (as a SL formulation, purchased from Fischer), trinexapac-ethyl (in the form of Primo MAXX®), or both (as a tank mix) were tested at various rates for effects on bentgrass (Agrostis palustris) variety Crenshaw. All treatments included the adjuvant NIS, at 0.25% v/v. Assessments of percentage injury to the turfgrass, and turfgrass quality (on a standard scale of 1 to 9) were made at various time intervals after treatment.

[2] = test system: bentgrass (Agrostis palustris) variety Crenshaw; experiment: Turfgrass colour assessment, Example 1; conditions: 43 DA-A (17 DA-B)
Description: as §1

[3] = test system: bentgrass (Agrostis palustris) variety A1; experiment: Colour (greenness) assessment, Example 2; conditions: TXP 0 g ai/ha
[4] = test system: bentgrass (Agrostis palustris) variety Crenshaw; experiment: Percentage injury to the turfgrass, Example 1; conditions: TXP 96 g ai/ha, methyl jasmonate 0 g ai/ha
Description: Compositions comprising methyl jasmonate (as a SL formulation, purchased from Fischer), trinexapac-ethyl (in the form of Primo MAXX®), or both (as a tank mix) were tested at various rates for effects on bentgrass (Agrostis palustris) variety Crenshaw. All treatments included the adjuvant NIS, at 0.25% v/v.

[5] = test system: bentgrass (Agrostis palustris) variety A1; experiment: Colour (greenness) assessment, Example 2; conditions: jasmonic acid 0 g ai/ha
Description: Compositions comprising methyl jasmonate (purchased from Aldrich), trinexapac-ethyl (in the form of Primo MAXX® 120EC), or both (as a tank mix) were tested at various rates for effects on bentgrass (Agrostis palustris) variety A1. Assessments of greenness were made at 5 and 12 days after the second treatment.

CC/C=C\C[C@H]1C(=O)CC[C@@H]1CC(=O)OC [Methyl jasmonate only, methyl (1R,2R)-3-Oxo-2-(2Z)-2-pentenyl-cyclopentaneacetate]
Quality (scale: 1 poor to 9 excellent) ([1]; TXP 0 g ai/ha, methyl jasmonate 168 g ai/ha, 33 DA-A (7 DA-B)): 7.1
Quality (scale: 1 poor to 9 excellent) ([1]; TXP 0 g ai/ha, methyl jasmonate 168 g ai/ha, 43 DA-A (17 DA-B)): 7.2
Quality (scale: 1 poor to 9 excellent) ([1]; TXP 0 g ai/ha, methyl jasmonate 168 g ai/ha, 56 DA-A (30 DA-B)): 7.0
Quality (scale: 1 poor to 9 excellent) ([1]; TXP 0 g ai/ha, methyl jasmonate 336 g ai/ha, 33 DA-A (7 DA-B)): 7.0
Quality (scale: 1 poor to 9 excellent) ([1]; TXP 0 g ai/ha, methyl jasmonate 336 g ai/ha, 43 DA-A (17 DA-B)): 7.2
Quality (scale: 1 poor to 9 excellent) ([1]; TXP 0 g ai/ha, methyl jasmonate 336 g ai/ha, 56 DA-A (30 DA-B)): 7.0
Quality (scale: 1 poor to 9 excellent) ([1]; TXP 0 g ai/ha, methyl jasmonate 670 g ai/ha, 33 DA-A (7 DA-B)): 6.9
Quality (scale: 1 poor to 9 excellent) ([1]; TXP 0 g ai/ha, methyl jasmonate 670 g ai/ha, 43 DA-A (17 DA-B)): 7.0
Quality (scale: 1 poor to 9 excellent) ([1]; TXP 0 g ai/ha, methyl jasmonate 670 g ai/ha, 56 DA-A (30 DA-B)): 7.0
Colour (scale: 1 poor to 9 excellent) ([2]; TXP 0 g ai/ha, methyl jasmonate 168 g ai/ha): 7.2
Colour (scale: 1 poor to 9 excellent) ([2]; TXP 0 g ai/ha, methyl jasmonate 336 g ai/ha): 7.2
Colour (scale: 1 poor to 9 excellent) ([2]; TXP 0 g ai/ha, methyl jasmonate 670 g ai/ha): 7.0
Greenness (scale of 1-10 by comparison with the untreated control) ([3]; jasmonic acid 168 g ai/ha, 5 DA-B): 0.0
Greenness (scale of 1-10 by comparison with the untreated control) ([3]; jasmonic acid 168 g ai/ha, 12 DA-B): 0.5
Greenness (scale of 1-10 by comparison with the untreated control) ([3]; jasmonic acid 336 g ai/ha, 5 DA-B): 0.0
Greenness (scale of 1-10 by comparison with the untreated control) ([3]; jasmonic acid 336 g ai/ha, 12 DA-B): 0.0
Greenness (scale of 1-10 by comparison with the untreated control) ([3]; jasmonic acid 672 g ai/ha, 5 DA-B): 0.0
Greenness (scale of 1-10 by comparison with the untreated control) ([3]; jasmonic acid 672 g ai/ha, 12 DA-B): 0.0

CCOC(=O)C1CC(=O)C(=C(O)C2CC2)C(=O)C1 (stereo not shown) [Trinexapac-ethyl only, trinexapac-ethyl]
Quality (scale: 1 poor to 9 excellent) ([1]; TXP 96 g ai/ha, methyl jasmonate 0 g ai/ha, 33 DA-A (7 DA-B)): 7.2
Quality (scale: 1 poor to 9 excellent) ([1]; TXP 96 g ai/ha, methyl jasmonate 0 g ai/ha, 43 DA-A (17 DA-B)): 7.4
Quality (scale: 1 poor to 9 excellent) ([1]; TXP 96 g ai/ha, methyl jasmonate 0 g ai/ha, 56 DA-A (30 DA-B)): 7.0
Colour (scale: 1 poor to 9 excellent) ([2]; TXP 96 g ai/ha, methyl jasmonate 0 g ai/ha): 7.3
Injury (%) ([4]; 8 DA-A): 5%
Injury (%) ([4]; 14 DA-A): 7%
Greenness (scale of 1-10 by comparison with the untreated control) ([5]; TXP 57 g ai/ha, 5 DA-B): 0.0
Greenness (scale of 1-10 by comparison with the untreated control) ([5]; TXP 57 g ai/ha, 12 DA-B): 0.0
Greenness (scale of 1-10 by comparison with the untreated control) ([5]; TXP 96 g ai/ha, 5 DA-B): 3.5
Greenness (scale of 1-10 by comparison with the untreated control) ([5]; TXP 96 g ai/ha, 12 DA-B): 3.5
